Key:
Type in all cases: cell-based
Details in all cases: 50 mg/l
Enterobacter cloaccae = assay: Leucine-peptidase detection on agar medium (Example 11)
Experimental: (§1) The detection medium was prepared by mixing 1.4 g of biogelytone (bioMérieux), 0.84 g of meat extract (bioMérieux), 2.24 g of NaCl (Merck), 280 μl of a solution of IPTG (isopropylthio-β-D-galactopyranoside, BIOSYNTH) in water (concentration 10 g/l) and 4.2 g of European agar (bioMérieux).
(§2) The substrate of the invention obtained in Example 2, in which the amino acid is leucine (leucine-9-aminobenzo[a]phenoxazin-5-one or Leu-ABP), or else a substrate of the prior art, which is leucine-aminomethylcoumarin (Leu-AMC, BACHEM), was then added in the following way: 280 ml of osmosed water were added to the medium, and the mixture was melted in a waterbath at 100° C. The mixture was autoclaved for 15 min at 121° C. and cooled to 50° C. in a waterbath.
(§3) The medium was then poured into Petri dishes.
(§4) The coloration of these colonies, the diffusion, and also the intensity of this coloration were noted.
(§5) The results were expressed as intensity of coloration using an arbitrary scale ranging from 0 to 4 as a basis and also as diffusion also using an arbitrary scale ranging from 0 to 4 as a basis.

Citrobacter freundii = assay: as above
Experimental: as §1, §2, §3, §4, §5

Escherichia coli [1] = assay: as above
Experimental: as §1, §2, §3, §4, §5

Staphylococcus aureus = assay: as above
Experimental: as §1, §2, §3, §4, §5

Klebsellia pneumoniae = assay: as above
Experimental: as §1, §2, §3, §4, §5

Pseudomonas aeruginosa = assay: as above
Experimental: as §1, §2, §3, §4, §5

Candida albicans [2] = assay: as above
Experimental: as §1, §2, §3, §4, §5

Enterococcus faecalis [3] = assay: as above
Experimental: as §1, §2, §3, §4, §5

Serratia marcescens = assay: as above
Experimental: as §1, §2, §3, §4, §5

Escherichia coli [4] = assay: Prolyl-peptidase detection on agar medium (Example 12); as to color of the colony: key: B corresponds to fluorescent blue; R corresponds to pink
Experimental: (§6) The detection media were prepared by mixing 1.68 g of yeast extract (bioMérieux), 1.4 g of biocase (bioMérieux), 1.26 g of malt extract (bioMérieux), 0.08 g of glucose (Merck) and 3.92 g of agar (bioMérieux).
(§7) 280 ml of osmosed water were added to the powder, and the mixture was then melted in a waterbath at 100° C. The product was separated into two flasks, each of 140 ml. Autoclaving was carried out at 121° C. for 15 min and the product was cooled to 50° C. in a waterbath.
(§8) L-Prolyl-7-amino-4-methylcoumarin (Pro-AMC, Bachem) was then added to the first flask as a control and L-prolyl-9-aminobenzo[a]phenoxazin-5-one (Pro-ABP, substrate of the invention obtained in Example 2, in which the amino acid is L-Proline) was then added to the second flask at the final concentration of 50 mg/l.
(§9) The size of the colonies, their coloration and also the intensity of this coloration were noted.

Candida guilliermondii = assay: as above; as to color of the colony: key: B corresponds to fluorescent blue; R corresponds to pink
Experimental: as §6, §7, §8, §9

Candida glabrata = assay: as above
Experimental: as §6, §7, §8, §9

Saccharomyces cerevisiae = assay: as above
Experimental: as §6, §7, §8, §9

Trichosporon beigelii = assay: as above; as to color of the colony: key: B corresponds to fluorescent blue; R corresponds to pink
Experimental: as §6, §7, §8, §9

Klebsiella pneumoniae = assay: as above
Experimental: as §6, §7, §8, §9

Candida tropicalis = assay: as above
Experimental: as §6, §7, §8, §9

Candida albicans [5] = assay: as above
Experimental: as §6, §7, §8, §9

Enterococcus faecalis [6] = assay: as above
Experimental: as §6, §7, §8, §9

[7] = test system: Escherichia coli (NCTC 10418); assay: Alanine peptidase detection, substrates with one to three amino acids (Example 15); parameters: key to color of the colony: R=pink; RP=pale pink; I=colorless
Experimental: (§10) 1000 ml of Columbia medium was melted in a waterbath at 100° C. and autoclaved at 121° C. for 15 min. It was then cooled to 50° C. in a waterbath.
(§11) This medium was separated into 5 flasks of 200 ml, and then, added at 50° C., as substrates, was that of Example 2 for which A is: • medium 1: L-alanine (L-alanine-9-aminobenzo[a]phenoxazin-5-one or A-ABP), • medium 2: L-alanine-L-alanine (L-alanine-L-alanine-9-aminobenzo-[a]phenoxazin-5-one or AA-ABP), • medium 3: L-alanine-L-alanine-L-alanine (L-alanine-L-alanine-L-alanine-9-aminobenzo[a]phenoxazin-5-one or AAA-ABP), • medium 4: L-alanine-glycine (L-alanine-glycine-9-aminobenzo[a]phenoxazin-5-one or AG-ABP), and • medium 5: glycine-L-alanine (glycine-L-alanine-9-aminobenzo[a]phenoxazin-5-one or GA-ABP), each substrate being solubilized in DMSO and used at a final concentration of 50 mg/l.
as §3
(§12) Nine microorganism strains derived from the Applicant's collection, suspended in physiological saline, were seeded in colonies on the media prepared in point 15.1 above according to a multipoint inoculation in a proportion of 15 000 cfu/spot. The dishes were incubated at 37° C. for 48 hours. The colonies formed were examined visually after incubation for 24 and 48 hours.
(§13) The results are expressed in Tables 7 and 8 hereinafter according to the rules and the nomenclature stated in paragraph 11.3 and where R=pink, RP=pale pink and I=colorless.

[8] = test system: Acinetobacter baumannii (ATCC 19606); assay: as above; parameters: key to color of the colony: R=pink; RP=pale pink; I=colorless
Experimental: as §10, §11, §3, §12, §13

[9] = test system: Staphylococcus epidermis (NCTC 11047); assay: as above; parameters: key to color of the colony: R=pink; RP=pale pink; I=colorless
Experimental: as §10, §11, §3, §12, §13

[10] = test system: Staphylococcus aureus (NCTC 6571); assay: as above; parameters: key to color of the colony: R=pink; RP=pale pink; I=colorless
Experimental: as §10, §11, §3, §12, §13

[11] = test system: Listeria monocytogenes (NCTC 11994); assay: as above; parameters: key to color of the colony: R=pink; RP=pale pink; I=colorless
Experimental: as §10, §11, §3, §12, §13

[12] = test system: Pseudomonas aerigunosa (NCTC 10038); assay: as above; parameters: key to color of the colony: R=pink; RP=pale pink; I=colorless
Experimental: as §10, §11, §3, §12, §13

[13] = test system: Enterobacter clocae (NCTC 11936); assay: as above; parameters: key to color of the colony: R=pink; RP=pale pink; I=colorless
Experimental: as §10, §11, §3, §12, §13

[14] = test system: Micrococcus luteus (NCTC611); assay: as above; parameters: key to color of the colony: R=pink; RP=pale pink; I=colorless
Experimental: as §10, §11, §3, §12, §13

Molecule: Cc1cc(=O)oc2cc(NC(=O)[C@@H](N)CC(C)C)ccc12 [Leu-AMC, leucine-aminomethylcoumarin, reference compound]
- growth diameter (Enterobacter cloaccae; 24 h): 0.8 mm
- intensity of coloration, scale 0 to 4 (Enterobacter cloaccae; 24 h): 3
- growth diameter (Enterobacter cloaccae; 48 h): 0.8 mm
- intensity of coloration, scale 0 to 4 (Enterobacter cloaccae; 48 h): 3
- growth diameter (Citrobacter freundii; 24 h): 0.8 mm
- intensity of coloration, scale 0 to 4 (Citrobacter freundii; 24 h): 3
- growth diameter (Citrobacter freundii; 48 h): 1 mm
- intensity of coloration, scale 0 to 4 (Citrobacter freundii; 48 h): 3
- growth diameter (Escherichia coli [1]; 24 h): 1.8 mm
- intensity of coloration, scale 0 to 4 (Escherichia coli [1]; 24 h): 3
- growth diameter (Escherichia coli [1]; 48 h): 1.8 mm
- intensity of coloration, scale 0 to 4 (Escherichia coli [1]; 48 h): 3
- growth diameter (Staphylococcus aureus; 24 h): 1.7 mm
- intensity of coloration, scale 0 to 4 (Staphylococcus aureus; 24 h): 2.5
- growth diameter (Staphylococcus aureus; 48 h): 1.7 mm
- intensity of coloration, scale 0 to 4 (Staphylococcus aureus; 48 h): 3
- growth diameter (Klebsellia pneumoniae; 24 h): 1.8 mm
- intensity of coloration, scale 0 to 4 (Klebsellia pneumoniae; 24 h): 3
- growth diameter (Klebsellia pneumoniae; 48 h): 1.8 mm
- intensity of coloration, scale 0 to 4 (Klebsellia pneumoniae; 48 h): 3
- growth diameter (Pseudomonas aeruginosa; 24 h): 2 mm
- intensity of coloration, scale 0 to 4 (Pseudomonas aeruginosa; 24 h): 1
- growth diameter (Pseudomonas aeruginosa; 48 h): 2 mm
- intensity of coloration, scale 0 to 4 (Pseudomonas aeruginosa; 48 h): 3
- growth diameter (Candida albicans [2]; 24 h): 0.4 mm
- intensity of coloration, scale 0 to 4 (Candida albicans [2]; 24 h): 0.25
- growth diameter (Candida albicans [2]; 48 h): 0.5 mm
- intensity of coloration, scale 0 to 4 (Candida albicans [2]; 48 h): 1.5
- growth diameter (Enterococcus faecalis [3]; 24 h): 0.4 mm
- intensity of coloration, scale 0 to 4 (Enterococcus faecalis [3]; 24 h): 0.5
- growth diameter (Enterococcus faecalis [3]; 48 h): 0.4 mm
- intensity of coloration, scale 0 to 4 (Enterococcus faecalis [3]; 48 h): 1.5
- growth diameter (Serratia marcescens; 24 h): 0.5 mm
- intensity of coloration, scale 0 to 4 (Serratia marcescens; 24 h): 2
- growth diameter (Serratia marcescens; 48 h): 0.7 mm
- intensity of coloration, scale 0 to 4 (Serratia marcescens; 48 h): 3

Molecule: Cc1cc(=O)oc2cc(NC(=O)[C@@H]3CCCN3)ccc12 [Pro-AMC, L-Prolyl-7-amino-4-methylcoumarin, reference compound]
- growth diameter (Escherichia coli [4]; 24 h): 3 mm
- intensity of coloration, scale 0 to 4 (Escherichia coli [4]; 24 h): 0.5
- growth diameter (Escherichia coli [4]; 48 h): 3 mm
- intensity of coloration, scale 0 to 4 (Escherichia coli [4]; 48 h): 0.5
- growth diameter (Candida guilliermondii; 24 h): 0.4 mm
- growth diameter (Candida guilliermondii; 48 h): 1.8 mm
- intensity of coloration, scale 0 to 4 (Candida guilliermondii; 48 h): 3
- growth diameter (Candida glabrata; 24 h): 0.3 mm
- growth diameter (Candida glabrata; 48 h): 1.7 mm
- growth diameter (Saccharomyces cerevisiae; 24 h): 0.3 mm
- growth diameter (Saccharomyces cerevisiae; 48 h): 1.7 mm
- growth diameter (Trichosporon beigelii; 24 h): 0.7 mm
- intensity of coloration, scale 0 to 4 (Trichosporon beigelii; 24 h): 0.25
- growth diameter (Trichosporon beigelii; 48 h): 3 mm
- intensity of coloration, scale 0 to 4 (Trichosporon beigelii; 48 h): 2
- growth diameter (Klebsiella pneumoniae; 24 h): 2.5 mm
- intensity of coloration, scale 0 to 4 (Klebsiella pneumoniae; 24 h): 0.25
- growth diameter (Klebsiella pneumoniae; 48 h): 3 mm
- intensity of coloration, scale 0 to 4 (Klebsiella pneumoniae; 48 h): 0.25
- growth diameter (Candida tropicalis; 24 h): 1.2 mm
- growth diameter (Candida tropicalis; 48 h): 2 mm
- growth diameter (Candida albicans [5]; 24 h): 1.2 mm
- intensity of coloration, scale 0 to 4 (Candida albicans [5]; 24 h): 2
- growth diameter (Candida albicans [5]; 48 h): 2.5 mm
- intensity of coloration, scale 0 to 4 (Candida albicans [5]; 48 h): 3
- growth diameter (Enterococcus faecalis [6]; 24 h): 0.8 mm
- growth diameter (Enterococcus faecalis [6]; 48 h): 1.2 mm

Molecule: L-prolyl-9-aminobenzo[a]phenoxazin-5-one [Pro-ABP]
- color of the colony (Escherichia coli [4]; 24 h): R
- growth diameter (Escherichia coli [4]; 24 h): 3 mm
- intensity of coloration, scale 0 to 4 (Escherichia coli [4]; 24 h): 0.25
- color of the colony (Escherichia coli [4]; 48 h): R
- growth diameter (Escherichia coli [4]; 48 h): 3 mm
- intensity of coloration, scale 0 to 4 (Escherichia coli [4]; 48 h): 3
- growth diameter (Candida guilliermondii; 24 h): 0.3 mm
- color of the colony (Candida guilliermondii; 48 h): R
- growth diameter (Candida guilliermondii; 48 h): 1.8 mm
- intensity of coloration, scale 0 to 4 (Candida guilliermondii; 48 h): 2
- growth diameter (Candida glabrata; 24 h): 0.4 mm
- growth diameter (Candida glabrata; 48 h): 1.8 mm
- growth diameter (Saccharomyces cerevisiae; 24 h): 0.5 mm
- growth diameter (Saccharomyces cerevisiae; 48 h): 2 mm
- growth diameter (Trichosporon beigelii; 24 h): 0.5 mm
- color of the colony (Trichosporon beigelii; 48 h): R
- growth diameter (Trichosporon beigelii; 48 h): 1.8 mm
- intensity of coloration, scale 0 to 4 (Trichosporon beigelii; 48 h): 2
- growth diameter (Klebsiella pneumoniae; 24 h): 2 mm
- growth diameter (Candida tropicalis; 24 h): 1.2 mm
- growth diameter (Candida tropicalis; 48 h): 1.8 mm
- color of the colony (Candida albicans [5]; 24 h): R
- growth diameter (Candida albicans [5]; 24 h): 0.8 mm
- intensity of coloration, scale 0 to 4 (Candida albicans [5]; 24 h): 2
- color of the colony (Candida albicans [5]; 48 h): R
- growth diameter (Candida albicans [5]; 48 h): 2.5 mm
- intensity of coloration, scale 0 to 4 (Candida albicans [5]; 48 h): 2
- growth diameter (Enterococcus faecalis [6]; 24 h): 0.7 mm
- growth diameter (Enterococcus faecalis [6]; 48 h): 0.7 mm

Molecule: glycine-L-alanine-9-aminobenzo[a]phenoxazin-5-one [GA-ABP]
- color of the colony ([7]; 24 h): R
- growth diameter ([7]; 24 h): 3 mm
- color of the colony ([7]; 48 h): R
- growth diameter ([7]; 48 h): 3 mm
- color of the colony ([8]; 24 h): R
- growth diameter ([8]; 24 h): 3 mm
- color of the colony ([8]; 48 h): R
- growth diameter ([8]; 48 h): 3 mm
- color of the colony ([9]; 24 h): I
- growth diameter ([9]; 24 h): 1 mm
- color of the colony ([9]; 48 h): I
- growth diameter ([9]; 48 h): 2 mm
- color of the colony ([10]; 24 h): I
- growth diameter ([10]; 24 h): 3 mm
- color of the colony ([10]; 48 h): I
- growth diameter ([10]; 48 h): 3 mm
- color of the colony ([11]; 24 h): I
- growth diameter ([11]; 24 h): 2 mm
- color of the colony ([11]; 48 h): R
- growth diameter ([11]; 48 h): 2 mm
- color of the colony ([12]; 24 h): RP
- growth diameter ([12]; 24 h): 3 mm
- color of the colony ([12]; 48 h): R
- growth diameter ([12]; 48 h): 3 mm
- color of the colony ([13]; 24 h): R
- growth diameter ([13]; 24 h): 3 mm
- color of the colony ([13]; 48 h): R
- growth diameter ([13]; 48 h): 3 mm
- growth diameter ([14]; 24 h): 0 mm
- growth diameter ([14]; 48 h): 0 mm
